ChEMBL document CHEMBL1201862, “PubChem BioAssay data set” (2004)
Activity calls are given as the source filed them.

What was measured:
T-cell = assay: loss of vesicle association with mouse CD8+ T cells – mouse 2C CD8+ T cells, flow cytometry, dose response (AID 485284); format: functional
[1] = target: Alkaline phosphatase, placental type (Homo sapiens, UniProt P05187); assay: human placental alkaline phosphatase inhibition – biochemical, luminescence, confirmation (AID 1512); format: functional
[2] = target: Alkaline phosphatase, tissue-nonspecific isozyme (Homo sapiens, UniProt P05186); assay: potency against alkaline phosphatase TNAP – biochemical, luminescent, dose response, SAR follow-up (AID 1056)
Mu-type opioid receptor = Mu-type opioid receptor (Homo sapiens, UniProt P35372); assay: (§1) Counterscreen for agonists of heterodimerization of the mu 1 (OPRM1) and delta 1 (OPRD1) opioid receptors: Luminescence-based cell-based high throughput dose response assay to identify agonists of OPRM1 homodimerization.; format: functional
[3] = target: Delta-type opioid receptor (Homo sapiens, UniProt P41143); assay: as §1, with “of OPRD1” for “of OPRM1”, “homodimerization. [Related pubchem assays (depositor defined):AID504326, AID504355, AID504692, AID504904, AID504905]” for “homodimerization.”; format: functional
[4] = target: T1, Ubiquitin-conjugating enzyme E2 N (Homo sapiens, UniProt P61088); format: functional;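 further: Dose-response confirmation in a TR-FRET assay detecting UBC13-driven polyubiquitin chain formation, inhibition measured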
T1 sequence (P61088 whole entry): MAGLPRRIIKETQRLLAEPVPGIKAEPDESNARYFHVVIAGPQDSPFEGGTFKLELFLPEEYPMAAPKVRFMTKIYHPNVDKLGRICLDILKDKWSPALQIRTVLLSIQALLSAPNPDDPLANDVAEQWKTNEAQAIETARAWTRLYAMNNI

[5] = viability of uninfected HEp-2 cells – cell-based, HTS, cytotoxicity control for RSV inhibitor project, dose response (AID 2410); format: functional; conditions: human respiratory syncytial virus
[6] = target: T2, Type-1 angiotensin II receptor (Homo sapiens, UniProt P30556); assay: agonist activity at AGTR1 – cell-based, uHTS hits, selectivity assay for APJ receptor agonist project, dose response (AID 488865); format: functional;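 further: beta-arrestin recruitment to AT1 measured by enzyme fragment complementation luminescence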
T2 sequence (P30556 whole entry): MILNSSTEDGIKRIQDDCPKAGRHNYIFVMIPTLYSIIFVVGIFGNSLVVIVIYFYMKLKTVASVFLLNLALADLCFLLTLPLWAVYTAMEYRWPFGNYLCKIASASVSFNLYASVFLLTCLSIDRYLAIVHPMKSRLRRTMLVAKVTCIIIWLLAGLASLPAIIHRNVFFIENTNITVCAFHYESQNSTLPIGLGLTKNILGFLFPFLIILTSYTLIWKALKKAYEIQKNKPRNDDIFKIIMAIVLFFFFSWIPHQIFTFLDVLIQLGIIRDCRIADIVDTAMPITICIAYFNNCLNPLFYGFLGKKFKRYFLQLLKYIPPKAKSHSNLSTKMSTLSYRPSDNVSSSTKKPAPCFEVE

[7] = target: 5-hydroxytryptamine receptor 5A (Homo sapiens, UniProt P47898); assay: Counterscreen for agonists of OPRM1-OPRD1 heterodimerization: luminescence-based cell-based high throughput dose response assay to identify agonists of 5-hydroxytryptamine (serotonin) 5A receptor (HTR5A). [Related pubchem assays (depositor defined):AID504326, AID504355, AID504692, AID504904, AID504905]; format: functional
[8] = target: T3, Apoptotic protease-activating factor 1 (Homo sapiens, UniProt O14727); format: functional
T3 sequence (O14727 whole entry): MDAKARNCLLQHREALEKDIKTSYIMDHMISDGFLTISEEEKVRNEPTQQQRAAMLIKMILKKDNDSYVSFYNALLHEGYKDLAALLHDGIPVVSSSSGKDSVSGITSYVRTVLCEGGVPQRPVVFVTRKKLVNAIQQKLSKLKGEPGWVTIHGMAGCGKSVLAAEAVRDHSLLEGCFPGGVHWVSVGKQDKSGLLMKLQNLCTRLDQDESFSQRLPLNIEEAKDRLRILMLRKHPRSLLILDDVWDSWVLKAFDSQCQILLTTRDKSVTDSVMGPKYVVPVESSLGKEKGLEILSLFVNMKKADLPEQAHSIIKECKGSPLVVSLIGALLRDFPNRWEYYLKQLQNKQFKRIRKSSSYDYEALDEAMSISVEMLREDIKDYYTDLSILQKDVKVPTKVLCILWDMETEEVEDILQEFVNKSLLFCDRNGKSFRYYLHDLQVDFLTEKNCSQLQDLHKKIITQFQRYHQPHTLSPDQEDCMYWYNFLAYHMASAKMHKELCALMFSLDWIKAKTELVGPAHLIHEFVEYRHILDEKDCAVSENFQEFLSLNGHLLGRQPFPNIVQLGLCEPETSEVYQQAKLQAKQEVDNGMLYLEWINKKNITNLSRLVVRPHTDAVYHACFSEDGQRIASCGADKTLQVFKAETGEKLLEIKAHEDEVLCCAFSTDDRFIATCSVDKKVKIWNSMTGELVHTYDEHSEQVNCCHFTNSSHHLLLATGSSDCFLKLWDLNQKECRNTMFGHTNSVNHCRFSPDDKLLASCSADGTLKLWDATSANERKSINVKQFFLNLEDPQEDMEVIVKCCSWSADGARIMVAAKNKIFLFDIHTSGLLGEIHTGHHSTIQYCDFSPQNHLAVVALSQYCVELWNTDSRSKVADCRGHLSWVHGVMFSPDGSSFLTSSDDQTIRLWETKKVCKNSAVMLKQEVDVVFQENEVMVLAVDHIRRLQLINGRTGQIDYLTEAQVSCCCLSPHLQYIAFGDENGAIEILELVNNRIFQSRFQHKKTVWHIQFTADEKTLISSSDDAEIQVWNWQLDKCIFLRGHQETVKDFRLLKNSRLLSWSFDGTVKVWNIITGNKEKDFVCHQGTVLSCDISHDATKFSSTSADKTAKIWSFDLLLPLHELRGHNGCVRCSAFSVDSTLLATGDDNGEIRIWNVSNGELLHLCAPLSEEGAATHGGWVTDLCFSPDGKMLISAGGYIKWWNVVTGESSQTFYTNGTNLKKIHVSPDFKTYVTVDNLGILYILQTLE

[9] = target: T4, Short transient receptor potential channel 4 (Mus musculus, UniProt Q9QUQ5); assay: calcium entry via TRPC4 opening agents – cell-based, HEK293 TRPC4/mu-opioid, Fluo-4 calcium, dose response (AID 434937); format: functional
T4 sequence (Q9QUQ5 whole entry): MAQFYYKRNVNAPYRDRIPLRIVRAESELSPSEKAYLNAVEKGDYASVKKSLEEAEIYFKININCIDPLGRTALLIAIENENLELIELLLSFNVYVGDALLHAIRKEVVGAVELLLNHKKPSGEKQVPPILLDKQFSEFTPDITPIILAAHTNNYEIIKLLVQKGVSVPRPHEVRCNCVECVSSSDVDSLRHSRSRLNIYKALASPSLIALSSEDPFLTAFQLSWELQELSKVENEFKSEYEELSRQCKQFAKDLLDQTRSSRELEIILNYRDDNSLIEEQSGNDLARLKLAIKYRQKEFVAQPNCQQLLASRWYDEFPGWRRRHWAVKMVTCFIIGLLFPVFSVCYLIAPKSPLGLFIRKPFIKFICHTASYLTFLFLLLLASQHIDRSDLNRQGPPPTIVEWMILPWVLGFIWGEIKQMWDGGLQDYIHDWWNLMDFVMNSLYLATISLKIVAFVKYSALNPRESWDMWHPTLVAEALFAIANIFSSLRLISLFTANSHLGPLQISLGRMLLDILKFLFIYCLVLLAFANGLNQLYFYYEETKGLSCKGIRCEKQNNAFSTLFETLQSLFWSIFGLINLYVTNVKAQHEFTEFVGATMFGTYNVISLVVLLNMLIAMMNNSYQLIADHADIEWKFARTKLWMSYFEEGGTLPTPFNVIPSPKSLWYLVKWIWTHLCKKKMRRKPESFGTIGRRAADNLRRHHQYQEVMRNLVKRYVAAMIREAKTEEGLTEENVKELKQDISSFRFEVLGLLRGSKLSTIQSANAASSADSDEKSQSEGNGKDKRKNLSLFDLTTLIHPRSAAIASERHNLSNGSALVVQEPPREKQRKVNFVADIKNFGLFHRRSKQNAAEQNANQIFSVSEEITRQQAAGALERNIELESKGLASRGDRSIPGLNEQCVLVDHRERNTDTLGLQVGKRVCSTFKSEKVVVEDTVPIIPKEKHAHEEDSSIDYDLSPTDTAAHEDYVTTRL

Protein RecA = target: T5, Protein RecA (Mycobacterium tuberculosis, UniProt P9WHJ3); assay: Fluorescence Cell-Free Homogeneous Dose Retest to Identify Inhibitors of RecA-Intein Splicing Activity. [Related pubchem assays (depositor defined):AID2097, AID2223, AID489010, AID492950]; format: functional
T5 sequence (P9WHJ3 whole entry): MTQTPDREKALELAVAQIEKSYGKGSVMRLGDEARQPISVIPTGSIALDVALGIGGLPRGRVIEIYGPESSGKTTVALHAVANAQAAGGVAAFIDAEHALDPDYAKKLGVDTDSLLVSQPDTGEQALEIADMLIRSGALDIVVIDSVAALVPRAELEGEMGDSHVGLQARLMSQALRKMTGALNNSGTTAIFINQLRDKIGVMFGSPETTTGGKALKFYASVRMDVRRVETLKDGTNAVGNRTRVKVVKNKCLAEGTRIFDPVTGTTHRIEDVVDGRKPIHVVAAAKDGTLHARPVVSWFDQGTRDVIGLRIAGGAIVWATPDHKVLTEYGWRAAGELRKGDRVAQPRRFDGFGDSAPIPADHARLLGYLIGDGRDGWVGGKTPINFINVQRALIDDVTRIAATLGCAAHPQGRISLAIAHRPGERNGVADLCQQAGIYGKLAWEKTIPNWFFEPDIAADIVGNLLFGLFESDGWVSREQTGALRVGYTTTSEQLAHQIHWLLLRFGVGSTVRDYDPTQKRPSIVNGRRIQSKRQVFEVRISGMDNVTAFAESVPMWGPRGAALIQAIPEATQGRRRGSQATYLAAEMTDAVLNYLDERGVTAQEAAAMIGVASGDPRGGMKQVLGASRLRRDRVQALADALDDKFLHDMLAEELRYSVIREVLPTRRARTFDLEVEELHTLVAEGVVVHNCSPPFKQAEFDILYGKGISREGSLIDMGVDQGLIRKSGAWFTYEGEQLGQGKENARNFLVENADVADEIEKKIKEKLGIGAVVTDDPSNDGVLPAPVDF

BJ [10] = assay: BJ-TERT fibroblast viability loss – cell-based, RAS-independent, luminescence, dose response (AID 1933); format: functional; conditions: Homo sapiens
[11] = Luminescence Cell-Based Dose Response HTS to Identify Inhibitors of 5'UTR Stem-Loop Driven Prion Protein mRNA Translation in H4 Neuroglioblastoma Cells. [Related pubchem assays: 1827 (Project Summary), 1813 (Primary HTS)]; format: functional
[12] = target: Mitochondrial peptide methionine sulfoxide reductase (Bos taurus, UniProt P54149); format: functional;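 further: absorbance read-out, biochemical high-throughput dose-response screen for MsrA inhibitors, confirmatory; recombinant bovine MsrA coupled to E. coli TrxB with NADPH and selenocystamine; potency is for inhibitors of MsrA activity on DMSO substrate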
[13] = Intein inhibitors as potential Tuberculosis drugs, a cytotoxicity screen. [Related pubchem assays (depositor defined):AID2221, AID2223, AID434968, AID435010, AID449749, AID449750, AID489010]; format: functional
[14] = target: T6, Replicative DNA helicase DnaB (Mycobacterium tuberculosis, UniProt P9WMR3); assay: DnaB intein splicing inhibitors, dose response, biochemical, cell-free fluorescence (AID 449749); format: functional
T6 sequence (P9WMR3 whole entry): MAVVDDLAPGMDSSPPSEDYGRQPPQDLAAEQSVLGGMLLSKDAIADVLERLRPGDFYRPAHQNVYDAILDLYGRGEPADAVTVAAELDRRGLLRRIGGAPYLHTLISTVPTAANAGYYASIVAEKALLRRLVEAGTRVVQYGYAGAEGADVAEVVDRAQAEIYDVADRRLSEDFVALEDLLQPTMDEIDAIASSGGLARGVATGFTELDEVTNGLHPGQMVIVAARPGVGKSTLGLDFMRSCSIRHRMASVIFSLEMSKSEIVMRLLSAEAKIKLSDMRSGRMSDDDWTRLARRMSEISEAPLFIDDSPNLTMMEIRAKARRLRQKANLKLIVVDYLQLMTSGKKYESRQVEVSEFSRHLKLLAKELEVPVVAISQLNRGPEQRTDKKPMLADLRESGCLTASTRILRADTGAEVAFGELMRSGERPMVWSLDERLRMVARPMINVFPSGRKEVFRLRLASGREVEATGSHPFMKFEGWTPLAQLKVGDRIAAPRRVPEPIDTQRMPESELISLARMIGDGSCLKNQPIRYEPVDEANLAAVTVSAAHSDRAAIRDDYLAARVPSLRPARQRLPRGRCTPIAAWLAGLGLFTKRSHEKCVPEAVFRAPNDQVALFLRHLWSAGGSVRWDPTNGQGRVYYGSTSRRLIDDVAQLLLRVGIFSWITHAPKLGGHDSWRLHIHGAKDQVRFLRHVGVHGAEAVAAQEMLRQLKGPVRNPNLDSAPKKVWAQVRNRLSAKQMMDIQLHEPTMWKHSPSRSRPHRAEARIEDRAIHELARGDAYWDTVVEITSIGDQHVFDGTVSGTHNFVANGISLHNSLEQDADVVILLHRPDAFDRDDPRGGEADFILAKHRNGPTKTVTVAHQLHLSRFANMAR

BJ [15] = assay: BJ-TERT-LT-ST fibroblast viability loss – cell-based, RAS-independent, luminescence, dose response (AID 1935); format: functional; conditions: Homo sapiens;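 further: BJ fibroblasts immortalized with TERT plus LT and ST oncogenes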
[16] = luciferase reporter signal suppression in cells – H4 neuroglioma cells, luminescence, dose response (AID 1990); format: functional, cell-based
INS1 = assay: INS-1E survival protection against cytokine death – cell-based, luminescence, retest, dose response (AID 449756); format: functional; conditions: Rattus norvegicus;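 further: cell death triggered by IL-1 beta plus TNF-alpha plus IFN-gamma mixture; protective hits raise ATP signal compared with cytokine alone wells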
[17] = DRD fibroblast viability loss – cell-based, non-viral oncogenic, luminescence, dose response (AID 1934); format: functional; conditions: Homo sapiens
BJ [18] = assay: cells; format: functional, cell-based; conditions: Homo sapiens

Delta-type opioid receptor, sequence (P41143 whole entry): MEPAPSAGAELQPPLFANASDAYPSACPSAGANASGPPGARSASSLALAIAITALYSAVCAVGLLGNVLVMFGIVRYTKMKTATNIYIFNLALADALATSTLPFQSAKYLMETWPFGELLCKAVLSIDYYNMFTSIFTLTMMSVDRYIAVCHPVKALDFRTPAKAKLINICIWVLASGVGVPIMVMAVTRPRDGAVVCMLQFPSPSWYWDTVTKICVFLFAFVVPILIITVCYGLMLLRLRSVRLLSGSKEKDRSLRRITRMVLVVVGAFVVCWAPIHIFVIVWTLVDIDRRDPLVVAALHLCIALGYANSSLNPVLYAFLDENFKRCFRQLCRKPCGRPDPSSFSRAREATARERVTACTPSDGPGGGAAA
Alkaline phosphatase, placental type, sequence (P05187 whole entry): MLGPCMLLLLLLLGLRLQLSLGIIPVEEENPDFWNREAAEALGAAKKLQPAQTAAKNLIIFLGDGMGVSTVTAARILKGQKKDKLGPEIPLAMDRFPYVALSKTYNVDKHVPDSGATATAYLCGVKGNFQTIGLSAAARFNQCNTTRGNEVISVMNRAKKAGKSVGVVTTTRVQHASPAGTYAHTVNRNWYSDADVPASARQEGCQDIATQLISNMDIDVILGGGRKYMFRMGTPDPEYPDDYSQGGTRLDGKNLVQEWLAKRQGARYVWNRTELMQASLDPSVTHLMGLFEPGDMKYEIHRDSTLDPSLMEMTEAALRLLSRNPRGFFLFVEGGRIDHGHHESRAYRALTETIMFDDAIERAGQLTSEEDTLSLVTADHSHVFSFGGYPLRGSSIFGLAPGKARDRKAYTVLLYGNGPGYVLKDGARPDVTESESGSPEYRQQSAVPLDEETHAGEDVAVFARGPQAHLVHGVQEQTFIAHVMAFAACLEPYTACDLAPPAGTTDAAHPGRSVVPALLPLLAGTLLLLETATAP
5-hydroxytryptamine receptor 5A, sequence (P47898 whole entry): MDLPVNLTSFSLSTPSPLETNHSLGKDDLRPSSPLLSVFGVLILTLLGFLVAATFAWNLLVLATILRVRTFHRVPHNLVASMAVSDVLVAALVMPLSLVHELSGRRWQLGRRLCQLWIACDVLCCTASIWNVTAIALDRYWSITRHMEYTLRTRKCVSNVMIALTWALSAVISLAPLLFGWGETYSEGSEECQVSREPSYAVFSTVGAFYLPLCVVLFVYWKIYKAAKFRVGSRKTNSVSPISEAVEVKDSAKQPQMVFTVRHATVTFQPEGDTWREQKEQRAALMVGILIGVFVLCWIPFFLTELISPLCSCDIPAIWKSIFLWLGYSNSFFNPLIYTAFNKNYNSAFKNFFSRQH
Alkaline phosphatase, tissue-nonspecific isozyme, sequence (P05186 whole entry): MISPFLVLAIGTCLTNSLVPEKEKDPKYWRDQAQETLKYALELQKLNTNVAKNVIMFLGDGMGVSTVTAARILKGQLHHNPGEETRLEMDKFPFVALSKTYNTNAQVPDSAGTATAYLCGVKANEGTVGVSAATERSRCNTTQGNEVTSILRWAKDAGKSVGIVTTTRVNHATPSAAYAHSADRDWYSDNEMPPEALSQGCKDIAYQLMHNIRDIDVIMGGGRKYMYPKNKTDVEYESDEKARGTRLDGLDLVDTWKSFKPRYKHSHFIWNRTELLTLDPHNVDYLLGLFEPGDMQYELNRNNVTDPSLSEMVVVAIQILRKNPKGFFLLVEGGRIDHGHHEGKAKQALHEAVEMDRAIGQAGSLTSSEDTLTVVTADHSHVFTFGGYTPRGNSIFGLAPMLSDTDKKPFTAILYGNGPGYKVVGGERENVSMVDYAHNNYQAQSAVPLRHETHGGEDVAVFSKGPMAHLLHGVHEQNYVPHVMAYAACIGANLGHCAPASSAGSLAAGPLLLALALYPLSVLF
Mu-type opioid receptor, sequence (P35372 whole entry): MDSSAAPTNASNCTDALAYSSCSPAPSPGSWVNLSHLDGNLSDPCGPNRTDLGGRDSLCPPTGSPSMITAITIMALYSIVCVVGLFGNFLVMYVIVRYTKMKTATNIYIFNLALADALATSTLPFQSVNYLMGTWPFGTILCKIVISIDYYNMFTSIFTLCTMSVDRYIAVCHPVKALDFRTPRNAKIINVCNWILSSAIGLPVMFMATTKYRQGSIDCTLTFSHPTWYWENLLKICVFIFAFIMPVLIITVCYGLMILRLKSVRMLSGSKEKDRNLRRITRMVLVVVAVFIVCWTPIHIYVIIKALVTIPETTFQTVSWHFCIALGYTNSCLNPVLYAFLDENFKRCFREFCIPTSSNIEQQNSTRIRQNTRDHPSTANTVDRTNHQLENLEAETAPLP
Mitochondrial peptide methionine sulfoxide reductase, sequence (P54149 whole entry): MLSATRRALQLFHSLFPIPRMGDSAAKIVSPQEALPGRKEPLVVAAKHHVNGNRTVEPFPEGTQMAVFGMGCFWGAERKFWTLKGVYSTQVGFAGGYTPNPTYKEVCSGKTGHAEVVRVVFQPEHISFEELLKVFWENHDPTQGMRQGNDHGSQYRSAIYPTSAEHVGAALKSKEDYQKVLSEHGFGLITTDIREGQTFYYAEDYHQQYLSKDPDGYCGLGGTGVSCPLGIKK

CCOc1ccccc1NC(=O)c1ccc(F)c(S(=O)(=O)N2CCC3(CC2)OCCO3)c1
EC50 (T-cell): 16.4 µM (active)

O=C(CNc1ccncc1)c1ccc(O)c(O)c1
IC50 [1]: > 100 µM (inactive) | IC50 [2]: > 100 µM (inactive)

CN(C)CCCN(C(=O)c1ccc(S(=O)(=O)N2CCc3ccccc3C2)cc1)c1nc2ccc(F)cc2s1
EC50 (Mu-type opioid receptor): 3.28 µM (active) | EC50 [3]: > 92.5 µM (inactive) | IC50 [4]: > 20 µM (inactive) | CC50 [5]: 31.1 µM (active) | EC50 [6]: > 100 µM (inactive) | EC50 [7]: > 92.5 µM (inactive) | IC50 [8]: 47.9 µM (active) | EC50 [9]: 0.596 µM (active)

Cc1oc2c(c1C(=O)N1CCOCC1)C(=O)c1ccccc1C2=O
EC50 (Protein RecA): 0.506 µM (active) | EC50 (BJ [10]): 11.8 µM (active) | EC50 [11]: 8.93 µM (active) | IC50 [12]: 64.3 µM (inactive) | CC50 [13]: 6.26 µM (active) | AC50 [14]: 1.41 µM (active) | EC50 (BJ [15]): > 75 µM (inconclusive) | EC50 [16]: 8.24 µM (active) | IC50 [8]: 13.9 µM (active) | AC50 (INS1): 2.45 µM (active) | EC50 [17]: 10.5 µM (active) | EC50 (BJ [18]): 13.4 µM (active)
